Patent US20090215743A1, “Tricyclic benzazepine derivatives and their use” (Bayer HealthCare AG, priority 2004, published 2009)

The molecules below were run on sterol biosynthesis (assay: Inhibition of squalene and cholesterol synthesis in the liver of mice (sterol biosynthesis)). Details: male NMRI mice, 3 mg/kg p.o., 14C-mevalonolactone, liver lipid fraction.
Format: in vivo
Description: Male NMRI mice are kept on normal rodent diet (NAFAG 3883) in metabolism cages. The light/dark cycle comprises 12 hours, from 06.00 to 18.00 and from 18.00 to 06.00. The animals are employed with a body weight of between 25 g and 40 g in groups of 8-10 animals in the experiments. Feed and drinking water are available to the animals ad libitum.
The substances are, according to their solubility, administered orally in aqueous tragacanth suspension (0.5%) or in Solutol HS15/saline solution (20:80) by gavage in a volume of 10 ml/kg of body weight or else injected subcutaneously in Solutol HS15/saline solution (20:80) or DMSO/saline solution (20:80). The corresponding control groups receive only the corresponding formulating agent without active substance. One or two hours after administration of the substance, the animals receive intraperitoneal injections of radiolabelled ^14C-mevalonolactone. One or two hours after the ^14C-mevalonolactone injection, or 24 hours after the administration of substance, the animals are sacrificed, the abdominal cavity is opened, and liver tissue is removed. Immediately after removal, the tissue is dried on the surface, weighed and homogenized in isopropanol. The further processing and extraction of the synthesized squalene and its secondary products takes place by a method of I. Duncan et al. (J. Chromatogr. 1979, 162), modified by H. Bischoff et al. (Atherosclerosis 1997, 135).
The extracted lipid fraction is taken up in 1 ml of isopropanol, transferred into scintillation vials, made up with 15 ml of Ultima Gold® scintillation fluid (Packard) and counted in a liquid scintillation counter (Beckmann Coulter LS 6500).
After calculation of the specific ^14C activity of the lipid fraction (dpm/g of liver tissue), the rate of synthesis of the radiolabelled ^14C squalene and of the ^14C secondary metabolites of the animals treated with the active substance is compared with the rate of synthesis of the radiolabelled ^14C squalene and of the ^14C secondary metabolites of the control animals treated only with formulating agent. A reduction in the rate of synthesis by ≧30% compared with the rate of synthesis for the control animals (=100%) is regarded as pharmacologically active if the statistical assessment by Student's t test results in a p value of <0.05.

Row | Compound | Inhibition relative to the untreated control group [%]
1 | COc1cccc(C2OC(CC(=O)O)c3nnc(C(C)C)n3-c3ccc(Cl)cc32)c1OC (racemic) [Example 3, [8-Chloro-6-(2,3-dimethoxyphenyl)-1-isopropyl-4H,6H-[1,2,4]triazolo[4,3-a][4,1]benzoxazepin-4-yl]acetic acid] | 81
2 | COc1cccc(C2OC(CC(=O)O)c3nnc(C(C)(C)CO)n3-c3ccc(Cl)cc32)c1OC (racemic) [Example 62-2, [8-Chloro-6-(2,3-dimethoxyphenyl)-1-(2-hydroxy-1,1-dimethylethyl)-4H,6H-[1,2,4]triazolo[4,3-a]-[4,1]benzoxazepin-4-yl]acetic acid] | 77
3 | COc1cccc(C2OC(CC(=O)N3CCSC3)c3nnc(C(C)C)n3-c3ccc(Cl)cc32)c1OC (stereo not shown) [Example 41, 8-Chloro-6-(2,3-dimethoxyphenyl)-1-isopropyl-4-[2-oxo-2-(1,3-thiazolidin-3-yl)ethyl]-4H,6H-[1,2,4]triazolo[4,3-a][4,1]benzoxazepine] | 81
4 | COc1cccc(C2OC(CC(=O)N3CCN(C(C)=O)CC3)c3nnc(C(C)C)n3-c3ccc(Cl)cc32)c1OC (stereo not shown) [Example 50, 4-[2-(4-Acetylpiperazin-1-yl)-2-oxoethyl]-8-chloro-6-(2,3-dimethoxyphenyl)-1-isopropyl-4H,6H-[1,2,4]triazolo[4,3-a][4,1]benzoxazepine] | 75
